Laboratory results taken from patent US4469634A, “Allyloxy- and allylthio-2,3,4,5-tetrahydro-1H-3-benzazepines” (SmithKline Beckman Corporation, priority 1982, dated 1984).
Where a name gives a salt, the structure may show the parent alone. Read-outs that look alike come from different tables or passages of the source.

Experiments:
alpha2-adrenoceptor = target: T1, alpha2-adrenoceptor (Cavia porcellus, UniProt Q60474); test: prejunctional alpha2-antagonist activity in isolated superfused guinea pig left atrium (shift of clonidine concentration-response curve); type: cell-based
T1 construct: The left atrium is removed, dissected free of extraneous tissue and mounted in a 2 ml superfusion chamber; from tissue; host or cells: left atrium of male guinea pig (sympathetic nerve terminals)
T1 sequence (Q60474 1-464): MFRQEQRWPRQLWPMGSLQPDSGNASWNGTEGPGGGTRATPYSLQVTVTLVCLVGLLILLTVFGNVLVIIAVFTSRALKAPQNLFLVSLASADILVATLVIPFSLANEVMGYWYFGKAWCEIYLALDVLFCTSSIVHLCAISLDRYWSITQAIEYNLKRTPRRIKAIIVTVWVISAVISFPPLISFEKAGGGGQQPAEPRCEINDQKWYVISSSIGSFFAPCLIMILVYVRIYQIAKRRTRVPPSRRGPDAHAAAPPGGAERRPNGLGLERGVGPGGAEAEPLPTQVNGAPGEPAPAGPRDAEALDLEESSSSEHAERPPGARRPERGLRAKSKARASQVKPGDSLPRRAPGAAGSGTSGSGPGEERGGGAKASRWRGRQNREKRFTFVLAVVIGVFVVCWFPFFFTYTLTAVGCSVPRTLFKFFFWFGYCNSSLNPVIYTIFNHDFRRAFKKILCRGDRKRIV
Protocol: Briefly, the heart is removed from a pentobarbital-anesthetized male guinea pig. The left atrium is removed, dissected free of extraneous tissue and mounted in a 2 ml superfusion chamber. The tissue is paced at 60 pulse/minute and the sympathetic nerves excited at 6 minute intervals by field stimulation. The response to nerve stimulation is measured as the difference in contractile force between the basal contraction and peak contraction following a nerve stimulation. A concentration-response curve for clonidine (a known alpha2 -agonist) is prepared by administering increasing concentrations of clonidine following each successive stimulation. The tissue is, then, superfused with the alpha2 -antagonist to be tested for thirty minutes and the clonidine concentration-effect curve is repeated in the presence of antagonist. The receptor dissociation constant of the antagonist (KB) is defined as the antagonist concentration required to shift the log concentration-response curve of the agonist to the right by a factor of 2.
Pharmacol. 309 217-224 (1979).

platelet = platelet test (method not described); type: cell-based

Row | Structure (SMILES) | Kb (alpha2-adrenoceptor) [nM] | EC50 (platelet) [nM] | Kb (alpha2-adrenoceptor; isolated superfused guinea pig left atrium, clonidine as agonist, antagonist superfused thirty minutes, read-out: KB, guinea pig atrium (receptor dissociation constant of the antagonist)) [nM]
1 | C=CCSc1ccc2c(c1)CCNCC2 [Example 1, 7-allylthio-2,3,4,5-tetrahydro-1H-3-benzazepine hydrochloride] | 380 | – | –
2 | C=CCOc1ccc(Cl)c2c1CCN(C)CC2 [Example 2, 9-allyloxy-6-chloro-3-methyl-2,3,4,5-tetrahydro-1H-3-benzazepine hydrochloride] | 320 | 90 | –
3 | C=CCOc1cccc2c1CCN(C)CC2 [Example 5, 6-allyloxy-3-methyl-2,3,4,5-tetrahydro-1H-3-benzazepinehydrochloride] | – | – | 160
